What all share (test): Growth inhibition test (MTT) for cytotoxic properties
For one assay, the system named is SW 480. In kind it is cell-based, human. How it is done: (§1) Growth Inhibition Test for Determination of the Cytotoxic Properties of Glycoconjugates of Batracyline and of Quinolone-a
(§2) The human colon cell lines SW 480 and HT 29 (ATCC no. CCL 228 and HBT-38) and the mouse melanoma cell line B 16 F 10 were cultured in Roux dishes in RPMI 1640 medium with addition of 10% FCS. The cultures were then trypsinized and taken up in RPMI plus 10% FCS to a cell count of 50,000 cells/ml. 100 μl of cell suspension/well were introduced into a 96 microwell plate and incubated for 1 day at 37° C. in a CO2 incubating cabinet. A further 100 μl of RPMI medium and 1 μl of dimethyl sulphoxide with the test substances were then added. The growth was checked after day 3 and day 6. 40 μl of MTT solution (3-(4,5-dimethylthiazol-2-yl)-2,5-diphenyltetrazoline bromide) with an initial concentration of 5 mg/ml of H2 O were added to each microwave. The plate was incubated for 5 hours in a CO2 incubating cabinet at 37° C. The medium was then sucked off and 100 μl of i-propanol/well were added. After shaking for 30 minutes with 100 μl of H2 O, the extinction was measured at 540 nm with a Titertek Multiskan MCC/340 (Flow).
(§3) The cytotoxic action of the glycoconjugates of batracyline described is shown in Table 1a as the IC50 value in each case for the SW 480 and HT 29 cell lines.

The test system of the next assay is HT 29. Format: cell-based, human. The procedure:
as §1, §2, §3

The next assay has as its system B 16 F 10. In kind it is cell-based, mouse. Particulars: Table 1b. The procedure:
as §1, §2

Setting [1] is: Table 1a, glycoconjugates of batracyline.

This is an account of results in US6271342A, “Sugar-modified cytostatics” (Bayer Aktiengesellschaft, priority 1995, dated 2001).

Counter-ions that a name gives are not always drawn.

`CC1OC(Oc2ccc(NC(=S)NC3C=CCC4CN(c5c(F)cc6c(=O)c(C(=O)O)cn(C7CC7)c6c5Cl)CC43)cc2)C(O)C(OCC(=O)O)C1O` (mixture of isomers) [Example 12.12, N-[O-(3-O-Carboxymethyl-β-L-fucosyl)-4hydroxy-phenylamino-thiocarbonyl-quinolone-a, di-sodium salt]: the IC50 in the assay on SW 480 (Table 1b) stood at 8 µM; with HT 29 (Table 1b), 13 µM; in the assay on B 16 F 10, 0.5 µM.

For the molecule `Cc1csc2c(C(=O)O)c(=O)c3cc(F)c(N4CC5C(C)C=CC(NC(=O)C(CCCCN)NC(=S)Nc6ccc(OC7OC(C)C(O)C(OCC(=O)O)C7O)cc6)C5C4)cc3n12` (mixture of isomers) [Example 14.3, N-{N^α -[O-(3-O-Carboxymethyl-β-L-fucosyl)-4-hydroxy-phenylamino-thiocarbonyl]-lysyl}-quinolone-c, di-sodium salt], the IC50 in the assay on SW 480 (Table 1b) was found to be 8 µM; in the assay on HT 29 (Table 1b), 4 µM; in the assay on B 16 F 10, 4 µM.

Turning to `C[C@@H]1O[C@H](Oc2ccc(NC(=S)NCCCC[C@H](N)C(=O)N[C@H](C)C(=O)NC3C=CCC4CN(c5c(F)cc6c(=O)c(C(=O)O)cn(C7CC7)c6c5Cl)CC43)cc2)[C@@H](O)[C@H](OCC(=O)O)[C@@H]1O` (stereo partly drawn) [Example 10.1, N-{N^ε -[O(3-O-Carboxymethyl-β-L-fucosyl)-4-hydroxy-phenylamino-thiocarbonyl]-lysyl-D-alanyl}-quinolone-a], the values for the IC50 with SW 480 (Table 1b), with HT 29 (Table 1b) and in the assay with B 16 F 10 were 50 µM, more than 250 µM and 15 µM, respectively.

For the molecule `CO[C@H]1[C@H](O)[C@@H](Oc2ccc(NC(=S)NCCCC[C@H](N)C(=O)N[C@@H](C)C(=O)NC3C=CCC4CN(c5c(F)cc6c(=O)c(C(=O)O)cn(C7CC7)c6c5Cl)CC43)cc2)O[C@@H](C)[C@H]1O` (stereo partly drawn) [Example 10.2, N-{N^ε -[O-(3-O-Methyl-β-L-fucosyl)-4-hydroxy-phenylamino-thiocarbonyl]-lysyl-alanyl}-quinolone-a], the IC50 is 4 µM in the assay on SW 480 (Table 1b), 3 µM with HT 29 (Table 1b) and 5 µM in the assay on B 16 F 10.

Consider `CO[C@H]1[C@H](O)[C@@H](Oc2ccc(NC(=S)N[C@@H](C)C(=O)NC3C=CCC4CN(c5c(F)cc6c(=O)c(C(=O)O)cn(C7CC7)c6c5Cl)CC43)cc2)O[C@@H](C)[C@H]1O` (some centres unmarked) [Example 12.2], for which the figures for the IC50 with SW 480 (Table 1b) and with B 16 F 10 were 4 µM and 0.8 µM, respectively.

On to “N-{N^α -[O-(3-O-Methoxycarbonylmethyl-β-D-galactopyranosyl)-4-hydroxyphenyla mino-thiocarbonyl]-N^ε -[O-(3,4-di-O-methyl-β-D-galactopyranosyl)-4-hydroxy-phenylamino-thio carbonyl]-lysyl-D-alanyl}-batracyline [Example 5.12]”, for which the IC50 in the assay on SW 480 (setting [1]) and with HT 29 (setting [1]) was 20 µM each time.

For “N-{N^α -[O-(3-O-Methyl-α-D-mannopyranosyl)-4-hydroxy-phenylamino-thiocarbon yl]-lysyl-D-alanyl}-batracyline [Example 4.12]”, the IC50 was 15 µM in the assay on SW 480 (setting [1]) and 9 µM in the assay with HT 29 (setting [1]).

On to “N-{N^α -[O-(3-O-Methyl-β-D-galactopyranosyl)-4-hydroxy-phenylamino-thiocarbo nyl]-lysyl-D-alanyl}-batracyline [Example 4.7]”, for which the IC50 in the assay with SW 480 (setting [1]) and in the assay on HT 29 (setting [1]) was 15 µM throughout.

Regarding “N-{N^α -[O-(3-O-Methyl-β-L-fucosyl)-4-hydroxy-phenylamino-thiocarbonyl]-lysy l-D-alanyl}-batracyline [Example 4.3]”, the IC50 with SW 480 (setting [1]) and in the assay with HT 29 (setting [1]) was 20 µM throughout.

On to “N-{N^α -[O-(3-O-Methyl-β-L-fucosyl)-4-hydroxyphenylamino-thiocarbonyl]-N. sup.ε -[4-hydroxyethylamino-2-[O-(3-O-methyl-β-L-fucosyl)-4-hydroxyphenylam ino]triazin-6-yl]]-lysyl-D-alanyl}-batracyline [Example 5.8]”, for which the IC50 in the assay on SW 480 (setting [1]) is 100 µM; in the assay with HT 29 (setting [1]) it was more than 250 µM.

With “N-{N^α -[O-(3-O-Methyl-β-L-fucosyl)-4-hydroxyphenylamino-thiocarbonyl]-N. sup.ε -[O-(3-O-carboxymethyl-β-L-fucosyl)-4-hydroxyphenylamino-thiocarbonyl ]-lysyl-D-alanyl}-batracyline [Example 5.2]”, the IC50 in the assay with SW 480 (setting [1]) worked out at 20 µM; in the assay with HT 29 (setting [1]) it was 55 µM.

As for “N-{N^α -[O-(β-D-Galactopyranosyl)-4-hydroxy-phenylamino-thiocarbonyl]-lysyl- D-alanyl}-batracyline [Example 4.6]”, the IC50 in the assay with SW 480 (setting [1]) and with HT 29 (setting [1]) was 10 µM in each case.

Regarding “N-{N^α,N^ε -Bis-10-(3-O-carbamoylmethyl-β-D-galactopyranosyl)-4-hydroxy-phenylam ino-thiocarbonyl]-lysyl-glycyl}-batracyline [Example 6.60]”, the IC50 with SW 480 (setting [1]) was 50 µM; in the assay on HT 29 (setting [1]) it was 40 µM.

In the case of “N-{N^α,N^ε -Bis-[O-(2-hydroxyethyl-β-L-fucosyl)-4-hydroxy-phenylamino-thiocarbon yl]-lysyl-D-alanyl}-batracyline [Example 6.10]”, the IC50 in the assay with SW 480 (setting [1]) and with HT 29 (setting [1]) was 50 µM in each case.

Take “N-{N^α,N^ε -Bis-[O-(3,4-di-O-methyl-β-D-galactopyranosyl)-4-hydroxy-phenylamino- thiocarbonyl]-lysyl-D-seryl}-batracyline [Example 6.40]”: the IC50 with SW 480 (setting [1]) was 170 µM; with HT 29 (setting [1]), 60 µM.

Take “N-{N^α,N^ε -Bis-[O-(3,4-di-O-methyl-β-D-galactopyranosyl)-4-hydroxy-phenylamino- thiocarbonyl]-lysyl-seryl}-batracyline [Example 6.32]”: the IC50 with SW 480 (setting [1]) and with HT 29 (setting [1]) was 60 µM throughout.

As for “N-{N^α,N^ε -Bis-[O-(3-O-carbamoylmethyl-β-D-galactopyranosyl)-4-hydroxy-phenylam ino-thiocarbonyl]-lysyl-D-seryl}-batracyline [Example 6.43]”, the IC50 was 90 µM in the assay with SW 480 (setting [1]) and 80 µM in the assay on HT 29 (setting [1]).

Take “N-{N^α,N^ε -Bis-[O-(3-O-carboxymethyl-β-D-galactopyranosyl)-4-hydroxy-phenylamin o-thiocarbonyl]-lysyl-D-asparagyl}-batracyline, di-sodium salt [Example 6.46]”: the IC50 with SW 480 (setting [1]) turned out to be 120 µM; with HT 29 (setting [1]) it was 100 µM.

On to “N-{N^α,N^ε -Bis-[O-(3-O-carboxymethyl-β-D-galactopyranosyl)-4-hydroxy-phenylamin o-thiocarbonyl]-lysyl-glycyl}-batracyline, di-sodium salt [Example 6.59]”, for which the IC50 in the assay with SW 480 (setting [1]) and in the assay on HT 29 (setting [1]) was 50 µM throughout.

In the case of “N-{N^α,N^ε -Bis-[O-(3-O-carboxymethyl-β-L-fucosyl)-4-hydroxy-phenylamino-thiocar bonyl]-lysyl}-batracyline [Example 6.25]”, the results for the IC50 in the assay with SW 480 (setting [1]) and in the assay on HT 29 (setting [1]) were 50 µM and 40 µM, respectively.

In the case of “N-{N^α,N^ε -Bis-[O-(3-O-methoxycarbonylmethyl-β-D-galactopyranosyl)-4-hydroxy-ph enylamino-thiocarbonyl]-lysyl-D-alanyl}-batracyline [Example 6.80]”, the IC50 with SW 480 (setting [1]) stood at 40 µM; in the assay with HT 29 (setting [1]) it was 25 µM.

Consider “N-{N^α,N^ε -Bis-[O-(3-O-methyl-α-D-mannopyranosyl)-4-hydroxy-phenylamino-thioca rbonyl]-lysyl-seryl}-batracyline [Example 6.36]”, for which the IC50 in the assay with SW 480 (setting [1]) and in the assay with HT 29 (setting [1]) was 70 µM in each case.

Regarding “N-{N^α,N^ε -Bis-[O-(3-O-methyl-β-D-galactopyranosyl)-4-hydroxy-phenylamino-thioc arbonyl]-lysyl-seryl}-batracyline [Example 6.30]”, the values for the IC50 with SW 480 (setting [1]) and with HT 29 (setting [1]) were 60 µM and 70 µM, respectively.

For the molecule “N-{N^α,N^ε -Bis-[O-(3-O-methyl-β-L-fucosyl)-4-hydroxy-phenylamino-thiocarbonyl]- lysyl-D-seryl}-batracyline [Example 6.23]”, the IC50 in the assay with SW 480 (setting [1]) is 107 µM; with HT 29 (setting [1]) it was 45 µM.

Regarding “N-{N^α,N^ε -Bis-[O-(3-O-n-propyl-β-L-fucosyl)-4-hydroxy-phenylamino-thiocarbonyl ]lysyl-D-alanyl}-batracyline [Example 6.7]”, the IC50 with SW 480 (setting [1]) is 60 µM; with HT 29 (setting [1]), more than 250 µM.

“N-{N^α,N^ε -Bis-[O-(α-L-rhamnosyl)-4-hydroxy-phenylamino-thiocarbonyl]-lysyl-D- alanyl}-batracyline [Example 6.15]”: the IC50 in the assay on SW 480 (setting [1]) and in the assay on HT 29 (setting [1]) was more than 250 µM each time.

As for “N-{N^ε -O-(2-O-Methyl-β-L-fucosyl)-4-hydroxy-phenylamino-thiocarbonyl]-lysyl -D-alanyl}-batracyline [Example 3.2]”, the half-inhibitory concentration (IC50) with SW 480 (setting [1]) was 100 µM; in the assay on HT 29 (setting [1]), 75 µM.

Regarding “N-{N^ε -[O-(3-O-Carbamoylmethyl-β-L-fucosyl)-4-hydroxy-phenylamino-thiocarbo nyl]-lysyl-D-alanyl}-batracyline, sodium salt [Example 3.10]”, the IC50 in the assay with SW 480 (setting [1]) is 100 µM; in the assay on HT 29 (setting [1]), 125 µM.

Take “N-{Nα-[O-(β-L-Fucosyl)-4-hydroxy-phenylamino-thiocarbonyl]-lysy l-D-alanyl}-batracyline [Example 4.1]”: the IC50 turned out to be 25 µM in the assay with SW 480 (setting [1]) and 30 µM in the assay on HT 29 (setting [1]).
